According to BindingDB's records for doi:10.1021/bi00246a005 (Texas A&M University, 1991):

Molecular target: T1, Carbamoyl-phosphate synthase small chain (Escherichia coli (strain K12), UniProt P0A6F1)
T1 sequence (P0A6F1 whole entry): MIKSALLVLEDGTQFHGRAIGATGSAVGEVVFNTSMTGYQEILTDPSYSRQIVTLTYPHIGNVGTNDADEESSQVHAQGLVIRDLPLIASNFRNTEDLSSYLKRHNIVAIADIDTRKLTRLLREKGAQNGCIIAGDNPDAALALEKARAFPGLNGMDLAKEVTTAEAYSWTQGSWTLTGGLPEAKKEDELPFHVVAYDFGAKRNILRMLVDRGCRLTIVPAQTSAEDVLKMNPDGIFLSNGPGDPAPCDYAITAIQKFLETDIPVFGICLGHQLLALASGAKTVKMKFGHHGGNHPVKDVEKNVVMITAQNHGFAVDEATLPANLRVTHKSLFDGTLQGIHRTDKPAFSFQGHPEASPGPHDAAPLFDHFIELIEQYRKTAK
Test: Enzyme Assay
Conditions: pH 7.5
Experimental: The rate of carbamoyl phosphate synthesis was determined by use of a coupled enzyme assay with ornithine transcarbamoylase.

Compound	Ki
NC(=O)CCC(N)C(=O)O (stereo not given) [Glutamine Analogue, 1]	54 µM
NNC(=O)CCC(N)C(=O)O (stereo not given) [Glutamine Analogue, 3]	340 µM
NC(CCC(=O)O)C(=O)O (stereo not given) [Glutamine Analogue, 4]	28000 µM

More lines, in order of falling Ki, values ahead:

Ki	Compound
25000 µM	COC(=O)CCC(N)C(=O)O (stereo not given) [Glutamine Analogue, 5]
9 µM	NC(CCC(=O)NO)C(=O)O (stereo not given) [Glutamine Analogue, 2]
